Results from publication PMC5100701 (Bioconjugate chemistry, 2016).
Read-outs that look alike come from different tables or passages of the source.

Legend:
[1] = biodistribution: tissue fluorescence in harvested organs; type: in vivo, C57BL/6 mice; settings: organs harvested 4h post-injection, 1 nmol injected
human MMP-12 [2] = molecular target: T1, human MMP-12 (Homo sapiens, UniProt P39900); assay: ability to block MMP-12 activity in presence of human serum albumin; type: biochemical; settings: hSA 5 μM
T1 sequence (P39900 106-470): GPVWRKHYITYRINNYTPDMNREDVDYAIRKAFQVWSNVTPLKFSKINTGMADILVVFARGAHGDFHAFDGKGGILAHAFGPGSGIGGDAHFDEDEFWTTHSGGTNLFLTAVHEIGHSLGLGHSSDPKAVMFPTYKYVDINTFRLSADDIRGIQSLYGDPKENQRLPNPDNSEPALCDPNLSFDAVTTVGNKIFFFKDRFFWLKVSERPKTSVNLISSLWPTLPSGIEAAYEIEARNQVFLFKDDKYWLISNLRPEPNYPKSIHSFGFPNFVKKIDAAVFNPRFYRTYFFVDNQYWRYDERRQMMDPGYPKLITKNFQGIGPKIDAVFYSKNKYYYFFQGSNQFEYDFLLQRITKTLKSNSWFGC

[3] = blood clearance after intravenous injection in mice; type: in vivo; settings: C57BL/6 mice, 1 nmol injected, n=3, 4h post-injection
[4] = LC/MS analysis of mouse urine; type: in vivo, C57BL/6 mice; settings: mouse urine 4h after injection
human MMP-12 [5] = molecular target: T1, human MMP-12; assay: in vitro binding; type: biochemical; settings: read-out: Ki (nM)/hMMP12; 50 mM Tris/HCl buffer, pH 6.8, 10 mM CaCl2, 25 °C; mean ± SD of three experiments
human MMP-12 [6] = molecular target: T1, human MMP-12; settings: read-out: Ki toward human MMP-12; cited from earlier work
atherosclerotic plaque = settings: mouse model of atherosclerosis; cited from earlier work

Row | SMILES | tissue fluorescence in liver, spleen, kidneys and lungs [1] | shift of Ki in presence of human serum albumin (human MMP-12 [2]) [fold] | percentage of injected dose remaining in the bloodstream 4h post-injection [3] [%ID] | conversion into a second metabolite in urine [4] | Ki (human MMP-12 [5]) [nM] | Ki (human MMP-12 [6]) [pM] | effect on atherosclerotic plaque (atherosclerotic plaque)
1 | CC[N+]1=C(C=CC=CC=C2N(CCCCCC(=O)NCCOCCOCCNC(=O)[C@H](CCC(=O)O)NC(=O)[C@H](CCC(=O)O)NC(=O)[C@H](Cc3cc(-c4ccc(-c5cccc(Cl)c5)cc4)no3)CP(=O)(O)c3ccc(Br)cc3)c3ccc4c(S(=O)(=O)O)cc(S(=O)(=O)[O-])cc4c3C2(C)C)C(C)(C)c2c1ccc1c(S(=O)(=O)O)cc(S(=O)(=O)O)cc21 [probe 1] | higher fluorescence signals in the kidneys relative to the liver | 88 | 25.1±2.9 |  |  |  | 
2 | CC1(C)C(=CC=C2CCCC(C=CC3=[N+](CCCCCC(=O)NCCOCCOCCNC(=O)[C@H](CCC(=O)O)NC(=O)[C@H](CCC(=O)O)NC(=O)[C@H](Cc4cc(-c5ccc(-c6cccc(Cl)c6)cc5)no4)CP(=O)(O)c4ccc(Br)cc4)c4ccc(S(=O)(=O)O)cc4C3(C)C)=C2Oc2ccc(S(=O)(=O)O)cc2)N(CCCCS(=O)(=O)O)c2ccc(S(=O)(=O)[O-])cc21 [probe 4] | cleared by the kidneys, but its uptake by the liver is not negligible |  |  | about 50% |  |  | 
3 | NC(=O)[C@H](CCC(=O)O)NC(=O)[C@H](CCC(=O)O)NC(=O)[C@H](Cc1cc(-c2ccc(-c3cccc(Cl)c3)cc2)no1)CP(=O)(O)c1ccc(Br)cc1 [RXP470.1, reference compound] |  | 8.5 |  |  | 0.26 ± 0.05 | 260 | inhibit atherosclerotic plaque growth
